Values joined by “and” are separate entries in the source; they are usually repeats but may differ in a detail not shown here. Identical values can stand only once.
Experiment: Pharmacokinetics in whole blood, CD-1 mice
Conditions: CD-1 mice, individual animals; for concentration at 0.083 hr / concentration at 0.333 h / concentration at 0.5 h / concentration at 1 h / concentration at 4 h: male, CD-1, mouse, in vivo, po, Compound 1 Whole Blood Conc.

COC(=O)CCNC(=O)[C@@H]1OP(=O)(N[C@@H](C)C(=O)OC)OCC1(C)C (some centres unmarked) [Compound 1]
Compound 1 Whole Blood Conc. (100 mg/kg RE-024-02 by PO, 2 hr, LLOQ 1.6 nM): BQL | Compound 1 Whole Blood Conc. (100 mg/kg RE-024-02 by PO, 4 hr, LLOQ 0.6 ng/mL): BQL | Compound 1 Whole Blood Conc. (100 mg/kg RE-024-02 by PO, 4 hr, LLOQ 1.6 nM): BQL | Compound 1 Whole Blood Conc. (100 mg/kg RE-024-02 by PO, 8 hr, LLOQ 0.6 ng/mL): BQL | Compound 1 Whole Blood Conc. (100 mg/kg RE-024-02 by PO, 8 hr, LLOQ 1.6 nM): BQL | Compound 1 Whole Blood Conc. (300 mg/kg RE-024-02 by PO, 0.033 hr, LLOQ 0.6 ng/mL, 300 mg/kg): 8.7 ng/mL and 70.8 ng/mL and 52.7 ng/mL and 7.2 ng/mL | Compound 1 Whole Blood Conc. (300 mg/kg RE-024-02 by PO, 0.033 hr, LLOQ 1.6 nM, 300 mg/kg): 22.9 nM and 186.2 nM and 138.7 nM and 18.9 nM | Compound 1 Whole Blood Conc. (300 mg/kg RE-024-02 by PO, 0.083 hr, LLOQ 0.6 ng/mL, 300 mg/kg): 1.6 ng/mL and BQL and 16.9 ng/mL | Compound 1 Whole Blood Conc. (300 mg/kg RE-024-02 by PO, 0.083 hr, LLOQ 1.6 nM, 300 mg/kg): 4.2 nM and BQL and 44.3 nM | Compound 1 Whole Blood Conc. (300 mg/kg RE-024-02 by PO, 0.167 hr, LLOQ 0.6 ng/mL, 300 mg/kg): 21.9 ng/mL and 24.1 ng/mL and 53.3 ng/mL and 17.7 ng/mL | Compound 1 Whole Blood Conc. (300 mg/kg RE-024-02 by PO, 0.167 hr, LLOQ 1.6 nM, 300 mg/kg): 57.6 nM and 63.3 nM and 140.1 nM and 46.5 nM | Compound 1 Whole Blood Conc. (300 mg/kg RE-024-02 by PO, 0.333 hr, LLOQ 0.6 ng/mL, 300 mg/kg): 2.4 ng/mL and 4.3 ng/mL and 3.8 ng/mL and 1.5 ng/mL | Compound 1 Whole Blood Conc. (300 mg/kg RE-024-02 by PO, 0.333 hr, LLOQ 1.6 nM, 300 mg/kg): 6.2 nM and 11.3 nM and 10 nM and 3.9 nM | Compound 1 Whole Blood Conc. (300 mg/kg RE-024-02 by PO, 0.5 hr, LLOQ 0.6 ng/mL, 300 mg/kg): 4.4 ng/mL and 4.5 ng/mL and 2.8 ng/mL | Compound 1 Whole Blood Conc. (300 mg/kg RE-024-02 by PO, 0.5 hr, LLOQ 1.6 nM, 300 mg/kg): 11.5 nM and 11.9 nM and 7.4 nM | Compound 1 Whole Blood Conc. (300 mg/kg RE-024-02 by PO, 1 hr, LLOQ 0.6 ng/mL, 300 mg/kg): BQL | Compound 1 Whole Blood Conc. (300 mg/kg RE-024-02 by PO, 1 hr, LLOQ 1.6 nM, 300 mg/kg): BQL | Compound 1 Whole Blood Conc. (300 mg/kg RE-024-02 by PO, 2 hr, LLOQ 0.6 ng/mL): BQL | Compound 1 Whole Blood Conc. (300 mg/kg RE-024-02 by PO, 2 hr, LLOQ 1.6 nM): BQL | Compound 1 Whole Blood Conc. (300 mg/kg RE-024-02 by PO, 4 hr, LLOQ 0.6 ng/mL): BQL | Compound 1 Whole Blood Conc. (300 mg/kg RE-024-02 by PO, 4 hr, LLOQ 1.6 nM): BQL | Compound 1 Whole Blood Conc. (300 mg/kg RE-024-02 by PO, 8 hr, LLOQ 0.6 ng/mL): BQL | Compound 1 Whole Blood Conc. (300 mg/kg RE-024-02 by PO, 8 hr, LLOQ 1.6 nM): BQL | Compound 1 Whole Blood Conc. (700 mg/kg RE-024-02 by PO, 0.033 hr, LLOQ 0.6 ng/mL, 700 mg/kg): 22.6 ng/mL and 66.6 ng/mL and 198 ng/mL and 119.4 ng/mL | Compound 1 Whole Blood Conc. (700 mg/kg RE-024-02 by PO, 0.033 hr, LLOQ 1.6 nM, 700 mg/kg): 59.3 nM and 175.1 nM and 520.6 nM and 313.9 nM | Compound 1 Whole Blood Conc. (700 mg/kg RE-024-02 by PO, 0.083 hr, LLOQ 0.6 ng/mL, 700 mg/kg): 165 ng/mL and 2.2 ng/mL and 624 ng/mL and 75 ng/mL | Compound 1 Whole Blood Conc. (700 mg/kg RE-024-02 by PO, 0.083 hr, LLOQ 1.6 nM, 700 mg/kg): 433.8 nM and 5.9 nM and 1640.7 nM and 197.2 nM | Compound 1 Whole Blood Conc. (700 mg/kg RE-024-02 by PO, 0.167 hr, LLOQ 0.6 ng/mL, 700 mg/kg): 636 ng/mL and 235.8 ng/mL and 165 ng/mL and 720 ng/mL | Compound 1 Whole Blood Conc. (700 mg/kg RE-024-02 by PO, 0.167 hr, LLOQ 1.6 nM, 700 mg/kg): 1672.2 nM and 620 nM and 433.8 nM and 1893.1 nM | Compound 1 Whole Blood Conc. (700 mg/kg RE-024-02 by PO, 0.333 hr, LLOQ 0.6 ng/mL, 700 mg/kg): 63.6 ng/mL | Compound 1 Whole Blood Conc. (700 mg/kg RE-024-02 by PO, 0.333 hr, LLOQ 1.6 nM, 700 mg/kg): 167.2 nM | Compound 1 Whole Blood Conc. (700 mg/kg RE-024-02 by PO, 0.5 hr, LLOQ 0.6 ng/mL, 700 mg/kg): 12 ng/mL and 41.6 ng/mL and 9.4 ng/mL and 22.9 ng/mL | Compound 1 Whole Blood Conc. (700 mg/kg RE-024-02 by PO, 0.5 hr, LLOQ 1.6 nM, 700 mg/kg): 31.6 nM and 109.3 nM and 24.8 nM and 60.1 nM | Compound 1 Whole Blood Conc. (700 mg/kg RE-024-02 by PO, 1 hr, LLOQ 0.6 ng/mL, 700 mg/kg): 48.8 ng/mL and 16 ng/mL and 6.1 ng/mL and 8.8 ng/mL | Compound 1 Whole Blood Conc. (700 mg/kg RE-024-02 by PO, 1 hr, LLOQ 1.6 nM, 700 mg/kg): 128.4 nM and 42.1 nM and 15.9 nM and 23.2 nM | Compound 1 Whole Blood Conc. (700 mg/kg RE-024-02 by PO, 2 hr, LLOQ 0.6 ng/mL, 700 mg/kg): 5.5 ng/mL and 4 ng/mL and 5.6 ng/mL and 10.2 ng/mL | Compound 1 Whole Blood Conc. (700 mg/kg RE-024-02 by PO, 2 hr, LLOQ 1.6 nM, 700 mg/kg): 14.6 nM and 10.4 nM and 14.8 nM and 26.8 nM | Compound 1 Whole Blood Conc. (700 mg/kg RE-024-02 by PO, 4 hr, LLOQ 0.6 ng/mL, 700 mg/kg): BQL | Compound 1 Whole Blood Conc. (700 mg/kg RE-024-02 by PO, 4 hr, LLOQ 1.6 nM, 700 mg/kg): BQL | Compound 1 Whole Blood Conc. (700 mg/kg RE-024-02 by PO, 8 hr, LLOQ 0.6 ng/mL): BQL | Compound 1 Whole Blood Conc. (700 mg/kg RE-024-02 by PO, 8 hr, LLOQ 1.6 nM): BQL | concentration at 0.083 hr (100 mg/kg, 100 mg/kg RE-024-02 by PO, 0.083 hr, LLOQ 0.6 ng/mL): 1.4 ng/mL | concentration at 0.083 hr (100 mg/kg, 100 mg/kg RE-024-02 by PO, 0.083 hr, LLOQ 1.6 nM): 3.8 nM | concentration at 0.333 h (100 mg/kg, 100 mg/kg RE-024-02 by PO, 0.333 hr, LLOQ 0.6 ng/mL): 0.8 ng/mL | concentration at 0.333 h (100 mg/kg, 100 mg/kg RE-024-02 by PO, 0.333 hr, LLOQ 1.6 nM): 2 nM | concentration at 0.5 h (300 mg/kg, 300 mg/kg RE-024-02 by PO, 0.5 hr, LLOQ 0.6 ng/mL): 5 ng/mL | concentration at 0.5 h (300 mg/kg, 300 mg/kg RE-024-02 by PO, 0.5 hr, LLOQ 1.6 nM): 13.1 nM | concentration at 1 h (300 mg/kg, 300 mg/kg RE-024-02 by PO, 1 hr, LLOQ 0.6 ng/mL): 0.8 ng/mL | concentration at 1 h (300 mg/kg, 300 mg/kg RE-024-02 by PO, 1 hr, LLOQ 1.6 nM): 2.1 nM | concentration at 0.333 h (700 mg/kg, 700 mg/kg RE-024-02 by PO, 0.333 hr, LLOQ 0.6 ng/mL): 109 ng/mL | concentration at 0.333 h (700 mg/kg, 700 mg/kg RE-024-02 by PO, 0.333 hr, LLOQ 1.6 nM): 286 nM | concentration at 4 h (700 mg/kg, 700 mg/kg RE-024-02 by PO, 4 hr, LLOQ 0.6 ng/mL): 0.8 ng/mL | concentration at 4 h (700 mg/kg, 700 mg/kg RE-024-02 by PO, 4 hr, LLOQ 1.6 nM): 2.1 nM
